# According to PubChem BioAssay (NCI):
#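 The compound was tested at five concentrations on cells cultured in 96-well plates, with a 48-hour exposure period. GI50 = concentration required for 50% inhibition of growth. Definition used: TGI = concentration required for complete inhibition of growth.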
# How the values were obtained:
# Assay in all cases: inhibition of tumour cell growth, NCI panel, 48 h
# 786-0 renal = test system: 786-0 renal
# A498 renal = test system: A498 renal
# A549 NSCLC = test system: A549 NSCLC
# ACHN renal = test system: ACHN renal
# CAKI-1 renal = test system: CAKI-1 renal
# DLD-1 colon = test system: DLD-1 colon
# EKVX NSCLC = test system: EKVX NSCLC
# HCT-15 colon = test system: HCT-15 colon
# HOP-18 NSCLC = test system: HOP-18 NSCLC
# KM20L2 colon = test system: KM20L2 colon
# LXFL 529 NSCLC = test system: LXFL 529 NSCLC
# NCI-H226 lung = test system: NCI-H226 lung
# NCI-H522 lung = test system: NCI-H522 lung
# OVCAR-3 ovarian = test system: OVCAR-3 ovarian
# OVCAR-5 ovarian = test system: OVCAR-5 ovarian
# OVCAR-8 ovarian = test system: OVCAR-8 ovarian
# RXF 393 renal = test system: RXF 393 renal
# SF-295 CNS = test system: SF-295 CNS
# SN12C renal = test system: SN12C renal
# TK-10 renal = test system: TK-10 renal
# CCRF-CEM leukemia = test system: CCRF-CEM leukemia
# COLO 205 colon = test system: COLO 205 colon
# DMS 114 small cell lung = test system: DMS 114 small cell lung
# DMS 273 small cell lung = test system: DMS 273 small cell lung
# HCC-2998 colon = test system: HCC-2998 colon
# HCT-116 colon = test system: HCT-116 colon
# HL-60(TB) leukemia = test system: HL-60(TB) leukemia
# HOP-62 NSCLC = test system: HOP-62 NSCLC
# HOP-92 NSCLC = test system: HOP-92 NSCLC
# HT29 colon = test system: HT29 colon
# IGROV1 ovarian = test system: IGROV1 ovarian
# K-562 leukemia = test system: K-562 leukemia
# KM12 colon = test system: KM12 colon
# LOX IMVI melanoma = test system: LOX IMVI melanoma
# M14 melanoma = test system: M14 melanoma
# M19-MEL melanoma = test system: M19-MEL melanoma
# MALME-3M melanoma = test system: MALME-3M melanoma
# MOLT-4 leukemia = test system: MOLT-4 leukemia
# NCI-H23 lung = test system: NCI-H23 lung
# NCI-H460 lung = test system: NCI-H460 lung
# OVCAR-4 ovarian = test system: OVCAR-4 ovarian
# RPMI-8226 leukemia = test system: RPMI-8226 leukemia
# SF-268 CNS = test system: SF-268 CNS
# SF-539 CNS = test system: SF-539 CNS
# SK-MEL-2 melanoma = test system: SK-MEL-2 melanoma
# SK-MEL-28 melanoma = test system: SK-MEL-28 melanoma
# SK-MEL-5 melanoma = test system: SK-MEL-5 melanoma
# SK-OV-3 ovarian = test system: SK-OV-3 ovarian
# SNB-19 CNS = test system: SNB-19 CNS
# SNB-75 CNS = test system: SNB-75 CNS
# SNB-78 CNS = test system: SNB-78 CNS
# SR leukemia = test system: SR leukemia
# SW-620 colon = test system: SW-620 colon
# U251 CNS = test system: U251 CNS
# UACC-257 melanoma = test system: UACC-257 melanoma
# UACC-62 melanoma = test system: UACC-62 melanoma
# UO-31 renal = test system: UO-31 renal
smiles,measurement,setting,value
COc1ccc2nc3cc(Cl)ccc3c(NCCC[N+](C)(C)CCCCCCCCCCCCCCCC[N+](C)(C)CCCNc3c4ccc(Cl)cc4nc4ccc(OC)cc34)c2c1,TGI,786-0 renal,> 100 µM
same,TGI,A498 renal,> 100 µM
same,TGI,A549 NSCLC,> 100 µM
same,TGI,ACHN renal,> 100 µM
same,TGI,CAKI-1 renal,> 100 µM
same,TGI,DLD-1 colon,> 100 µM
same,TGI,EKVX NSCLC,9.97 µM
same,TGI,HCT-15 colon,> 100 µM
same,TGI,HOP-18 NSCLC,14 µM
same,TGI,KM20L2 colon,> 100 µM
same,TGI,LXFL 529 NSCLC,3.25 µM
same,TGI,NCI-H226 lung,> 100 µM
same,TGI,NCI-H522 lung,8 µM
same,TGI,OVCAR-3 ovarian,> 100 µM
same,TGI,OVCAR-5 ovarian,14.2 µM
same,TGI,OVCAR-8 ovarian,> 100 µM
same,TGI,RXF 393 renal,> 100 µM
same,TGI,SF-295 CNS,> 100 µM
same,TGI,SN12C renal,> 100 µM
same,TGI,TK-10 renal,25.3 µM
CCOc1ccc(NC(=O)C(=O)NO)cc1,TGI,786-0 renal,> 100 µM
same,TGI,A498 renal,> 100 µM
same,TGI,A549 NSCLC,> 100 µM
same,TGI,ACHN renal,> 100 µM
same,TGI,CAKI-1 renal,> 100 µM
same,TGI,CCRF-CEM leukemia,> 100 µM
same,TGI,COLO 205 colon,> 100 µM
same,TGI,DLD-1 colon,> 100 µM
same,TGI,DMS 114 small cell lung,> 100 µM
same,TGI,DMS 273 small cell lung,> 100 µM
same,TGI,EKVX NSCLC,> 100 µM
same,TGI,HCC-2998 colon,> 100 µM
same,TGI,HCT-116 colon,> 100 µM
same,TGI,HCT-15 colon,> 100 µM
same,TGI,HL-60(TB) leukemia,> 100 µM
same,TGI,HOP-18 NSCLC,> 100 µM
same,TGI,HOP-62 NSCLC,> 100 µM
same,TGI,HOP-92 NSCLC,> 100 µM
same,TGI,HT29 colon,> 100 µM
same,TGI,IGROV1 ovarian,> 100 µM
same,TGI,K-562 leukemia,> 100 µM
same,TGI,KM12 colon,> 100 µM
same,TGI,KM20L2 colon,> 100 µM
same,TGI,LOX IMVI melanoma,> 100 µM
same,TGI,LXFL 529 NSCLC,> 100 µM
same,TGI,M14 melanoma,> 100 µM
same,TGI,M19-MEL melanoma,> 100 µM
same,TGI,MALME-3M melanoma,> 100 µM
same,TGI,MOLT-4 leukemia,> 100 µM
same,TGI,NCI-H226 lung,> 100 µM
same,TGI,NCI-H23 lung,> 100 µM
same,TGI,NCI-H460 lung,> 100 µM
same,TGI,NCI-H522 lung,> 100 µM
same,TGI,OVCAR-3 ovarian,> 100 µM
same,TGI,OVCAR-4 ovarian,> 100 µM
same,TGI,OVCAR-5 ovarian,> 100 µM
same,TGI,OVCAR-8 ovarian,> 100 µM
same,TGI,RPMI-8226 leukemia,> 100 µM
same,TGI,RXF 393 renal,> 100 µM
same,TGI,SF-268 CNS,> 100 µM
same,TGI,SF-295 CNS,> 100 µM
same,TGI,SF-539 CNS,> 100 µM
same,TGI,SK-MEL-2 melanoma,> 100 µM
same,TGI,SK-MEL-28 melanoma,> 100 µM
same,TGI,SK-MEL-5 melanoma,> 100 µM
same,TGI,SK-OV-3 ovarian,> 100 µM
same,TGI,SN12C renal,> 100 µM
same,TGI,SNB-19 CNS,> 100 µM
same,TGI,SNB-75 CNS,> 100 µM
same,TGI,SNB-78 CNS,> 100 µM
same,TGI,SR leukemia,> 100 µM
same,TGI,SW-620 colon,> 100 µM
same,TGI,TK-10 renal,> 100 µM
same,TGI,U251 CNS,> 100 µM
same,TGI,UACC-257 melanoma,> 100 µM
same,TGI,UACC-62 melanoma,> 100 µM
same,TGI,UO-31 renal,> 100 µM
O=C(C=Nc1ccccc1C(=O)[O-])c1cccs1.O=C(C=Nc1ccccc1C(=O)[O-])c1cccs1.[Co+2],TGI,786-0 renal,> 100 µM
same,TGI,A498 renal,> 100 µM
same,TGI,A549 NSCLC,> 100 µM
same,TGI,ACHN renal,> 100 µM
same,TGI,CAKI-1 renal,> 100 µM
same,TGI,CCRF-CEM leukemia,> 100 µM
same,TGI,COLO 205 colon,> 100 µM
same,TGI,DLD-1 colon,> 100 µM
same,TGI,HCC-2998 colon,> 100 µM
same,TGI,HCT-116 colon,> 100 µM
same,TGI,HCT-15 colon,> 100 µM
same,TGI,HL-60(TB) leukemia,> 100 µM
same,TGI,HOP-18 NSCLC,> 100 µM
same,TGI,HOP-62 NSCLC,> 100 µM
same,TGI,HOP-92 NSCLC,> 100 µM
same,TGI,HT29 colon,> 100 µM
same,TGI,IGROV1 ovarian,> 100 µM
same,TGI,K-562 leukemia,> 100 µM
same,TGI,KM12 colon,> 100 µM
same,TGI,KM20L2 colon,> 100 µM
same,TGI,LOX IMVI melanoma,> 100 µM
same,TGI,M14 melanoma,> 100 µM
same,GI50,M19-MEL melanoma,> 100 µM
same,TGI,M19-MEL melanoma,> 100 µM
same,TGI,MALME-3M melanoma,> 100 µM
same,TGI,MOLT-4 leukemia,> 100 µM
same,TGI,NCI-H23 lung,> 100 µM
same,TGI,NCI-H460 lung,> 100 µM
same,TGI,NCI-H522 lung,> 100 µM
same,TGI,OVCAR-3 ovarian,95.1 µM
same,TGI,OVCAR-5 ovarian,> 100 µM
same,TGI,OVCAR-8 ovarian,> 100 µM
same,TGI,SF-268 CNS,> 100 µM
same,TGI,SF-295 CNS,> 100 µM
same,TGI,SF-539 CNS,> 100 µM
same,TGI,SK-MEL-2 melanoma,> 100 µM
same,TGI,SK-MEL-28 melanoma,> 100 µM
same,TGI,SK-OV-3 ovarian,> 100 µM
same,TGI,SN12C renal,> 100 µM
same,TGI,SNB-19 CNS,> 100 µM
same,TGI,SR leukemia,> 100 µM
same,TGI,SW-620 colon,> 100 µM
same,TGI,TK-10 renal,> 100 µM
same,TGI,U251 CNS,> 100 µM
same,TGI,UACC-257 melanoma,> 100 µM
same,TGI,UACC-62 melanoma,> 100 µM
same,TGI,UO-31 renal,> 100 µM
